Key:
[1] = cited from earlier work
[2] = Coprecipitation of a chemical substance with a tannin or chelating agent and a metal salt in water; format: physicochemical; conditions: (+)-catechin 60 mg and lead acetate 60 mg
Experimental: After stirring for a while, a coprecipitate was formed.
In a similar manner, for the following combinations of a chemical substance and a metal salt, a proportion of the chemical substance taken into a coprecipitate was determined.
Chemical substance: (B) acephate, (C) acetamiprid, (D) urea;
Chelating agent: (Q) sodium ethylenediamine tetraacetate, (R) aminotrimethylenephosphonic acid;
Metal salt: (b) potassium acetate, (c) manganese acetate, (d) aluminum acetate, (e) nickel acetate, (f) cobalt acetate, (g) calcium acetate, (h) magnesium acetate, (i) magnesium chloride and (j) sodium acetate.
After completion of dissolving, the solution was analyzed for dinotefuran. […] After stirring for a while, a coprecipitate was formed. The supernatant was analyzed for dinotefuran A to determine a proportion of dinotefuran taken into the coprecipitate.

| SMILES | water solubility [1] [ppm] | proportion of dinotefuran taken into the coprecipitate [2] [%] |
| --- | --- | --- |
| C/C(=N\C#N)N(C)Cc1ccc(Cl)nc1 [acetamiprid] | 4200 | – |
| COc1nc(NC(C)C)nc(NC(C)C)n1 [promethone] | 750 | – |
| CNC(=N[N+](=O)[O-])NCC1CCOC1 (racemic) [dinotefuran, (RS)-1-methyl-2-nitro-3-[(3-tetrahydrofuryl)methyl]guanidine] | – | 41 |
| CCOP(=O)(OCC)O/C(=C\Cl)c1ccc(Cl)cc1Cl [CVP, Chlorfenvin-phos] | 1500 | – |
| CCSCc1ccccc1OC(=O)NC [etiofencarb] | 1800 | – |

From US20030013684A1, “Agricultural composition” (priority 2001, published 2003)
